Data on 13 compounds can be found in patent US11339130B1 (Blade Therapeutics, Inc., priority 2016, dated 2022).

In one assay the target is T1, Human Calpain 1/NS1 (Homo sapiens, UniProt P07384).
T1 sequence (P07384 1-714): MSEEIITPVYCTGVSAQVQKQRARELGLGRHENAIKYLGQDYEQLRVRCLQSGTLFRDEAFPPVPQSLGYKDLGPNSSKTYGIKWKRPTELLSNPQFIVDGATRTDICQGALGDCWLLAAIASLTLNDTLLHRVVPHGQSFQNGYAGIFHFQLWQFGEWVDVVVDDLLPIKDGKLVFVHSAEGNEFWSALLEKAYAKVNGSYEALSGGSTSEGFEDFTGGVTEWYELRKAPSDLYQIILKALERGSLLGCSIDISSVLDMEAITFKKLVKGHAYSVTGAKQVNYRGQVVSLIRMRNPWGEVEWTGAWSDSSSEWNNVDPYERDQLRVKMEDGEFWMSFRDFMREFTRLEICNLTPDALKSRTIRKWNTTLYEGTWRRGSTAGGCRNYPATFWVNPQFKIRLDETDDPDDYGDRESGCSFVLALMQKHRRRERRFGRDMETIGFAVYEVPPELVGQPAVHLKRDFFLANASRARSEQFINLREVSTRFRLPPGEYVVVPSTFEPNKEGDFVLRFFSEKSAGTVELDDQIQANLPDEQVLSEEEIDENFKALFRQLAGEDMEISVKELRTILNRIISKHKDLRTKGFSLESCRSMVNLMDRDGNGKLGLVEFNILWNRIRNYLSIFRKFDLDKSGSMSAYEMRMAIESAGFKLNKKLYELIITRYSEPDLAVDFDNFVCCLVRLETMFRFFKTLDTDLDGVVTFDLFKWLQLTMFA
T1 sequence (P04632 1-268 partner): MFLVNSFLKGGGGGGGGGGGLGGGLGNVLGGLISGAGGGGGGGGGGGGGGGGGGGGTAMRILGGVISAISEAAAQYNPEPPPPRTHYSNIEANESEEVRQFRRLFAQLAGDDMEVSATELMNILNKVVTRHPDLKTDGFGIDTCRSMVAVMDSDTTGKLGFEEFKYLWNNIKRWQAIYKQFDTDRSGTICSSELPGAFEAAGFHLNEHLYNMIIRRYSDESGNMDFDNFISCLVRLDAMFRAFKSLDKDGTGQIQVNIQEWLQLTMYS
In words: Calpain inhibition continuous fluorescence (FRET) assay, Human Calpain 1/NS1. Type of assay: biochemical. Particulars: read-out: Human Calpain 1/NS1 IC50. In outline:
(§1)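 Human calpains 1, 2 and 9 preincubated with inhibitor at 25 °C in 50 mM Tris pH 7.5, 100 mM NaCl, 1 mM DTT; reaction started with 5-FAM/QXL 520 FRET peptide plus CaCl2 for activation. Fluorescence (490/520 nm) followed 10 min; rates from 1-5 min slopes fitted to 4-parameter logistic for IC50.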

The target of another assay is T2, Human Calpain 2/NS1 (Homo sapiens, UniProt P17655).
T2 sequence (P17655 1-700): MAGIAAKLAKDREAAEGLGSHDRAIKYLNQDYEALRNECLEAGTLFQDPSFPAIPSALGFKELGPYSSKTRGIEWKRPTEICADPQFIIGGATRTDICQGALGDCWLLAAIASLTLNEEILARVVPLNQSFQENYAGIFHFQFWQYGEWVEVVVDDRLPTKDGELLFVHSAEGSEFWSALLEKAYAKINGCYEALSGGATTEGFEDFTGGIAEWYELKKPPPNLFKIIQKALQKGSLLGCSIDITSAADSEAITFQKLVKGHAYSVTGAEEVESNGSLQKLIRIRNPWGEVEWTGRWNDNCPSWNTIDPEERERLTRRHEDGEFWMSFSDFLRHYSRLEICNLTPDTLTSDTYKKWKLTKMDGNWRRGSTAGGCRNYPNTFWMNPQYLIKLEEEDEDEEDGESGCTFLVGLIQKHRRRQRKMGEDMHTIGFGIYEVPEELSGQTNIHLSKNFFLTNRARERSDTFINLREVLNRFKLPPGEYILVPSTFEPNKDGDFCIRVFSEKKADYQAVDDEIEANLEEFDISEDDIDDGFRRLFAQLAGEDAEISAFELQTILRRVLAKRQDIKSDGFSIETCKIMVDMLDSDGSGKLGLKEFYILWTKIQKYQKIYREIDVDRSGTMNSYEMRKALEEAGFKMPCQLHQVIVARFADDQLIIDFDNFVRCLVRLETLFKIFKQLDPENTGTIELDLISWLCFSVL
T2 sequence (P04632 1-268 partner): T1 sequence (P04632 1-268 partner)
Briefly: Calpain inhibition continuous fluorescence (FRET) assay, Human Calpain 2/NS1. Type of assay: biochemical. Particulars: read-out: Human Calpain 2/NS1 IC50. The gist of the method:
as §1

A further assay has as its target T3, Human Calpain 9/NS1 (Homo sapiens, UniProt O14815).
T3 sequence (O14815 1-690): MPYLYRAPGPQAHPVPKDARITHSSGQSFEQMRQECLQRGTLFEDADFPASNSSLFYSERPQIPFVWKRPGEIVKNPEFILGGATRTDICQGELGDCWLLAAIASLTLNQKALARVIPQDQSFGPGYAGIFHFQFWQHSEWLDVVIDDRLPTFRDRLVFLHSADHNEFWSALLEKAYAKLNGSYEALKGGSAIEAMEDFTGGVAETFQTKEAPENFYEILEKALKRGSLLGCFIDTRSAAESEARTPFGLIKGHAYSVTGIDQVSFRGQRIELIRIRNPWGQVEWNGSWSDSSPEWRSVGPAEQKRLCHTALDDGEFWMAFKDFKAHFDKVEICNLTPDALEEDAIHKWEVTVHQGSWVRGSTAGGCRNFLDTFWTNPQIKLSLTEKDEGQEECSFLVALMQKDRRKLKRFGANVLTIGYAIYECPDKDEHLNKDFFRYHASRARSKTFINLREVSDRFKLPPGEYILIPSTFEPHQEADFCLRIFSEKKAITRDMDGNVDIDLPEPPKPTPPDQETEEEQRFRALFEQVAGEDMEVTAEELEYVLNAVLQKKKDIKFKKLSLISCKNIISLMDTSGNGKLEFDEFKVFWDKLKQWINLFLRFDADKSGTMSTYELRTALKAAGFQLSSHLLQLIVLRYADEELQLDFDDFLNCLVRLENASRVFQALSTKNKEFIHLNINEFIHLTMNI
T3 sequence (P04632 1-268 partner): T1 sequence (P04632 1-268 partner)
Briefly: Calpain inhibition continuous fluorescence (FRET) assay, Human Calpain 9/NS1. The format is biochemical. To be noted: read-out: Human Calpain 9/NS1 IC50. In outline:
as §1

Assay [1] concerns Calpain activity in SH-SY5Y cells (SBDP-150). Briefly: SH-SY5Y Spectrin western blot assay (SBDP-150 breakdown product, A23187-induced). To be noted: SH-SY5Y cells, read-out: SH-SY5Y Spectrin IC50. Type of assay: cell-based. (Immunoblotting shows a protein as a band on a membrane.)
Assay [2] relates to Calpain activity in SH-SY5Y cells. Briefly: SH-SY5Y + AMC fluorescence assay (Suc-LLVY-AMC substrate). Type of assay: cell-based. To be noted: read-out: SH-SY5Y + AMC IC50.
Setting [3] is: Homo sapiens, Column D, A23187-induced SBDP-150.
The mark [4] stands for this setting: Homo sapiens, A23187-induced SBDP-150, western blot.

Like-named read-outs stand apart in the source and are kept apart here.

Turning to `Cc1cc(C(=O)N[C@@H](Cc2ccccc2)C(=O)C(N)=O)n(-c2ccccn2)n1` [Compound 12, (S)—N-(4-amino-3,4-dioxo-1-phenylbutan-2-yl)-3-methyl-1-(pyridin-2-yl)-1H-pyrazole-5-carboxamide], the IC50 is below 3 µM at Human Calpain 1/NS1 (Column A); below 3 µM at Human Calpain 2/NS1 (Column B); below 3 µM on Human Calpain 9/NS1 (Column C); 10 to 25 µM in assay [1] (setting [3]); below 10 µM in assay [2] (Column E).
Turning to `Cc1cc(C(=O)N[C@@H](Cc2ccccc2)C(=O)C(N)=O)n(-c2ccc3ccccc3n2)n1` [Compound 15, (S)—N-(4-amino-3,4-dioxo-1-phenylbutan-2-yl)-3-methyl-1-(quinolin-2-yl)-1H-pyrazole-5-carboxamide], the IC50 at Human Calpain 1/NS1 (Column A) is below 3 µM; at Human Calpain 2/NS1 (Column B), below 3 µM; on Human Calpain 9/NS1 (Column C), below 3 µM; in assay [1] (setting [3]), below 10 µM; in assay [2] (Column E), 10 to 25 µM.
As for `Cc1cc(C(=O)N[C@@H](Cc2ccccc2)C(=O)C(N)=O)n(-c2cccc(-c3ccccc3)c2)n1` [Compound 16, (S)-1-([1,1′-biphenyl]-3-yl)-N-(4-amino-3,4-dioxo-1-phenylbutan-2-yl)-3-methyl-1H-pyrazole-5-carboxamide], the IC50 at Human Calpain 1/NS1 (Column A) is below 3 µM; on Human Calpain 2/NS1 (Column B) it was below 3 µM; on Human Calpain 9/NS1 (Column C) it was below 3 µM; in assay [1] (setting [3]), 10 to 25 µM; in assay [2] (Column E), 10 to 25 µM.
On to `Cc1cc(C(=O)N[C@@H](Cc2ccccc2)C(=O)C(N)=O)n(-c2ccc(S(C)(=O)=O)cc2)n1` [Compound 17, (S)—N-(4-amino-3,4-dioxo-1-phenylbutan-2-yl)-3-methyl-1-(4-(methylsulfonyl)phenyl)-1H-pyrazole-5-carboxamide], for which the IC50 at Human Calpain 1/NS1 (Column A) was below 3 µM; at Human Calpain 2/NS1 (Column B) it was below 3 µM; at Human Calpain 9/NS1 (Column C), below 3 µM; in assay [1] (setting [3]), below 10 µM; in assay [2] (Column E) it was above 25 µM.
On to `Cc1cc(C(=O)N[C@@H](Cc2ccccc2)C(=O)C(N)=O)n(-c2ccc(OC(F)(F)F)cc2)n1` [Compound 19, (S)—N-(4-amino-3,4-dioxo-1-phenylbutan-2-yl)-3-methyl-1-(4-(trifluoromethoxy)phenyl)-1H-pyrazole-5-carboxamide], for which the IC50 was below 3 µM on Human Calpain 1/NS1 (Column A); below 3 µM on Human Calpain 2/NS1 (Column B); below 3 µM on Human Calpain 9/NS1 (Column C); 10 to 25 µM in assay [1] (setting [3]); above 25 µM in assay [2] (Column E).
In the case of `Cc1noc(-c2ccccc2)c1C(=O)N[C@@H](Cc1ccccc1)C(=O)C(N)=O` [Compound 23, (S)—N-(4-amino-3,4-dioxo-1-phenylbutan-2-yl)-3-methyl-5-phenylisoxazole-4-carboxamide], the IC50 on Human Calpain 1/NS1 (Column A) was below 3 µM; on Human Calpain 2/NS1 (Column B) it was below 3 µM; at Human Calpain 9/NS1 (Column C) it was below 3 µM; in assay [1] (setting [3]), 10 to 25 µM; in assay [2] (Column E) it was above 25 µM.
As to `Cc1nc(-c2cccc(F)c2)c(C(=O)N[C@@H](Cc2ccccc2)C(=O)C(N)=O)o1` [Compound 254, (S)—N-(4-amino-3,4-dioxo-1-phenylbutan-2-yl)-4-(3-fluorophenyl)-2-methyloxazole-5-carboxamide], the IC50 is below 3 µM on Human Calpain 1/NS1 (Column A), below 3 µM at Human Calpain 9/NS1 (Column C), 10 to 25 µM in assay [1] (setting [3]) and below 10 µM in assay [2] (Column E).
For `NC(=O)C(=O)[C@H](Cc1ccccc1)NC(=O)c1cn(C(F)F)nc1-c1ccccc1` [Compound 379, (S)—N-(4-amino-3,4-dioxo-1-phenylbutan-2-yl)-1-(difluoromethyl)-3-phenyl-1H-pyrazole-4-carboxamide], the IC50 on Human Calpain 1/NS1 was below 3 µM; at Human Calpain 9/NS1, below 3 µM; in assay [1] (setting [4]), below 10 µM; in assay [2], below 10 µM.
In the case of `CCn1cc(C(=O)NC(Cc2ccccc2)C(=O)C(N)=O)c(-c2cccc(F)c2)n1` (centres unmarked) [Compound 470, N-(4-amino-3,4-dioxo-1-phenylbutan-2-yl)-1-ethyl-3-(3-fluorophenyl)-1H-pyrazole-4-carboxamide], the IC50 is below 3 µM on Human Calpain 1/NS1, below 3 µM on Human Calpain 2/NS1, 10 to 25 µM in assay [1] (setting [4]) and below 10 µM in assay [2].
In the case of `NC(=O)C(=O)C(Cc1ccccc1)NC(=O)c1cn(C(F)F)nc1-c1cc(F)cc(F)c1` (centres unmarked) [Compound 523, N-(4-amino-3,4-dioxo-1-phenylbutan-2-yl)-1-(difluoromethyl)-3-(3,5-difluorophenyl)-1H-pyrazole-4-carboxamide], the IC50 on Human Calpain 1/NS1 is below 3 µM; in assay [1] (setting [4]) it was 10 to 25 µM; in assay [2], below 10 µM.
For the compound `NC(=O)C(=O)C(Cc1ccccc1)NC(=O)c1nsnc1-c1ccc2c(c1)OC(F)(F)O2` (centres unmarked) [Compound 599, N-(4-amino-3,4-dioxo-1-phenylbutan-2-yl)-4-(2,2-difluorobenzo[d][1,3]dioxol-5-yl)-1,2,5-thiadiazole-3-carboxamide], the IC50 was below 3 µM on Human Calpain 9/NS1, above 25 µM in assay [1] (setting [4]) and above 25 µM in assay [2].
For the compound `Cn1cc(C(=O)NC(Cc2ccccc2)C(=O)C(N)=O)c(-c2ccnc3ccccc23)n1` (centres unmarked) [Compound 611, N-(4-amino-3,4-dioxo-1-phenylbutan-2-yl)-1-methyl-3-(quinolin-4-yl)-1H-pyrazole-4-carboxamide], the IC50 is below 3 µM at Human Calpain 1/NS1, below 3 µM at Human Calpain 2/NS1, below 3 µM on Human Calpain 9/NS1 and 10 to 25 µM in assay [1] (setting [4]).
Take “(S)—N-(4-(((1H-benzo[d]imidazol-5-yl)methyl)amino)-3,4-dioxo-1-phenyl butan-2-yl)-3-methyl-5-phenylisoxazole-4-carboxamide [Compound 493]”: the IC50 at Human Calpain 1/NS1 is below 3 µM; at Human Calpain 2/NS1, below 3 µM; at Human Calpain 9/NS1, 3 to 10 µM; in assay [1] (A23187-induced SBDP-150, western blot), above 25 µM.
